Experimental findings from patent publication US9127001B2, “Substituted 4,5,6,7-tetrahydro-1H-pyrazolo[4,3-c]pyridines, their use as medicament, and pharmaceutical preparations comprising them” (Sanofi, priority 2011, dated 2015) are described below.

Molecules are shown by their SMILES. Some results are limits rather than exact numbers.

The target of the assay is Human TASK-1 channels (Homo sapiens (Human), UniProt O14649). In words: Activity on the TASK-1 channel in Xenopus oocytes (two-microelectrode voltage clamp). The format is cell-based. The note with it: for IC50: human TASK-1 expressed in Xenopus oocytes, currents during pulses to 40 mV, room temperature. The method, then: Human TASK-1 channels were expressed in Xenopus oocytes. For this purpose, oocytes were isolated from Xenopus laevis and defoliculated. Subsequently, TASK-1-encoding RNA synthesized in vitro was injected into oocytes. […] Data were acquired and analyzed using a TEC-10cx amplifier (NPI Electronic, Tamm, Germany) connected to an ITC-16 interface (Instrutech Corp., Long Island, USA) and Pulse software (HEKA Elektronik, Lambrecht, Germany). […] Oocytes were continuously superfused with ND96 buffer containing: NaCl 96 mM, KCl 2 mM, CaCl2 1.8 mM, MgCl2 1 mM, HEPES 5 mM (pH adjusted to 7.4 with NaOH). All experiments were performed at room temperature.
Sequence of Human TASK-1 channels (O14649 whole entry, the tested form may be a part): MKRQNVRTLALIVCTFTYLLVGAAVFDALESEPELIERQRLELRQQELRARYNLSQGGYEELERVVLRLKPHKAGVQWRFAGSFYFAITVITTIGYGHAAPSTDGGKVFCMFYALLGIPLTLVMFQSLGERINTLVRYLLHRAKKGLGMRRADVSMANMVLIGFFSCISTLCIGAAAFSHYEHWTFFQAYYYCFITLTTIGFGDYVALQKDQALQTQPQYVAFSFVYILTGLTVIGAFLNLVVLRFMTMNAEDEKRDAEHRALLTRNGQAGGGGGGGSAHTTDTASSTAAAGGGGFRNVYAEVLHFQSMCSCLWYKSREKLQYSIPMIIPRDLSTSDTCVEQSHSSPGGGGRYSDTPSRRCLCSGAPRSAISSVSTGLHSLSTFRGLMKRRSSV
Test substances were consecutively added to the bath solution at rising concentrations. […] IC50 values were obtained by fitting the data to the general dose-response equation.

On to `COc1cccnc1Cn1nc(-c2cccc(C(F)(F)F)c2)c2c1CCN(C(C)=O)C2` [Example 6s, 1-[1-(3-Methoxy-pyridin-2-ylmethyl)-3-(3-trifluoromethyl-phenyl)-1,4,6,7-tetrahydro-pyrazolo[4,3-c]pyridin-5-yl]-ethanone], for which the inhibition (as a rule, the percentage by which the read-out fell short of the control) at 5 µM amounted to 83%. Consider `CC(=O)N1CCc2c(c(-c3cccc(Cl)c3)nn2Cc2ncccc2C)C1` [Example 6t, 1-[3-(3-Chloro-phenyl)-1-(3-methyl-pyridin-2-ylmethyl)-1,4,6,7-tetrahydro-pyrazolo[4,3-c]pyridin-5-yl]-ethanone], for which the inhibition at 5 µM came out at 62%.

As for `CC(=O)N1CCc2c(c(-c3cccc(C(F)(F)F)n3)nn2C(C)c2ccc(F)cc2)C1` (stereo not drawn) [Example 6u, 1-[1-[1-(4-Fluoro-phenyl)-ethyl]-3-(6-trifluoromethyl-pyridin-2-yl)-1,4,6,7-tetrahydro-pyrazolo[4,3-c]pyridin-5-yl]-ethanone], the inhibition at 5 µM was 89%. `CC(=O)N1CCc2c(c(-c3cccc(C)n3)nn2Cc2ccc(F)cc2F)C1` [Example 6v, 1-[1-(2,4-Difluoro-benzyl)-3-(6-methyl-pyridin-2-yl)-1,4,6,7-tetrahydro-pyrazolo[4,3-c]pyridin-5-yl]-ethanone]: the inhibition at 5 µM came to 73%. On to `CC(=O)N1CCc2c(c(-c3cccc(Br)n3)nn2Cc2ccc(F)cc2F)C1` [Example 6w, 1-[3-(6-Bromo-pyridin-2-yl)-1-(2,4-difluoro-benzyl)-1,4,6,7-tetrahydro-pyrazolo[4,3-c]pyridin-5-yl]-ethanone], for which the IC50 – broadly, the concentration needed to halve the response being measured – was < 10000 nM. On to `CC(=O)N1CCc2c(c(-c3cc(C)ccn3)nn2Cc2ccc(F)cc2F)C1` [Example 6x, 1-[1-(2,4-Difluoro-benzyl)-3-(4-methyl-pyridin-2-yl)-1,4,6,7-tetrahydro-pyrazolo[4,3-c]pyridin-5-yl]-ethanone], for which the inhibition at 5 µM stood at 82%. Same read-out and setting: as for `COc1cccc(-c2nn(Cc3ccc(F)cc3F)c3c2CN(C(C)=O)CC3)n1` [Example 6y, 1-[1-(2,4-Difluoro-benzyl)-3-(6-methoxy-pyridin-2-yl)-1,4,6,7-tetrahydro-pyrazolo[4,3-c]pyridin-5-yl]-ethanone], the figure is 86%. Consider `COc1ccc(-c2nn(Cc3ccc(F)cc3F)c3c2CN(C(C)=O)CC3)nc1Cl` [Example 6z, 1-[3-(6-Chloro-5-methoxy-pyridin-2-yl)-1-(2,4-difluoro-benzyl)-1,4,6,7-tetrahydro-pyrazolo[4,3-c]pyridin-5-yl]-ethanone], for which the inhibition at 5 µM turned out to be 75%. `CC1(C(=O)N2CCc3c(c(-c4cccc(C#N)c4)nn3Cc3ccc(F)cc3F)C2)COC1` [Example 8a, 3-[1-(2,4-Difluoro-benzyl)-5-(3-methyl-oxetane-3-carbonyl)-4,5,6,7-tetrahydro-1H-pyrazolo[4,3-c]pyridin-3-yl]-benzonitrile] had an IC50 of 276 nM. `CC(C)C(=O)N1CCc2c(c(-c3cccc(C#N)c3)nn2Cc2ccc(F)cc2F)C1` [Example 8b, 3-[1-(2,4-Difluoro-benzyl)-5-isobutyryl-4,5,6,7-tetrahydro-1H-pyrazolo[4,3-c]pyridin-3-yl]-benzonitrile] showed a concentration for half-maximal inhibition (IC50) of 19 nM. Turning to `N#Cc1cccc(-c2nn(Cc3ccc(F)cc3F)c3c2CN(C(=O)C2CC2)CC3)c1` [Example 8c, 3-[5-Cyclopropanecarbonyl-1-(2,4-difluoro-benzyl)-4,5,6,7-tetrahydro-1H-pyrazolo[4,3-c]pyridin-3-yl]-benzonitrile], half-maximal inhibition (IC50) required 47 nM.

In turn, `CC(C)(C)OCC(=O)N1CCc2c(c(-c3cccc(C#N)c3)nn2Cc2ccc(F)cc2F)C1` [Example 8d, 3-[5-(2-tert-Butoxy-acetyl)-1-(2,4-difluoro-benzyl)-4,5,6,7-tetrahydro-1H-pyrazolo[4,3-c]pyridin-3-yl]-benzonitrile] had an inhibition at 5 µM of 75%.

The compound `CS(=O)(=O)c1cccc(C(=O)N2CCc3c(c(-c4cccc(C#N)c4)nn3Cc3ccc(F)cc3F)C2)c1` [Example 8e, 3-[1-(2,4-Difluoro-benzyl)-5-(3-methanesulfonyl-benzoyl)-4,5,6,7-tetrahydro-1H-pyrazolo[4,3-c]pyridin-3-yl]-benzonitrile] registered an IC50 of 1620 nM. That is a single-digit micromolar value. The compound `O=C(c1ccc(F)cc1)N1CCc2c(c(-c3ccc(F)cc3)nn2Cc2ccccc2)C1` [Example 8f, [1-Benzyl-3-(4-fluoro-phenyl)-1,4,6,7-tetrahydro-pyrazolo[4,3-c]pyridin-5-yl]-(4-fluoro-phenyl)-methanone] had an IC50 of 1280 nM. In turn, `COc1ccc(C(=O)N2CCc3c(c(-c4ccc(F)cc4)nn3Cc3ccccc3)C2)cc1` [Example 8g, [1-Benzyl-3-(4-fluoro-phenyl)-1,4,6,7-tetrahydro-pyrazolo[4,3-c]pyridin-5-yl]-(4-methoxy-phenyl)-methanone] yielded an IC50 of 3260 nM. Same read-out and setting: as for `O=C(c1ccccc1)N1CCc2c(c(-c3ccc(F)cc3)nn2Cc2ccccc2)C1` [Example 8h, [1-Benzyl-3-(4-fluoro-phenyl)-1,4,6,7-tetrahydro-pyrazolo[4,3-c]pyridin-5-yl]-phenyl-methanone], the figure is 2400 nM; as for `N#Cc1cccc(-c2nn(Cc3ccc(F)cc3F)c3c2CN(C(=O)C2CCC2)CC3)c1` [Example 8i, 3-[5-Cyclobutane-carbonyl-1-(2,4-difluoro-benzyl)-4,5,6,7-tetrahydro-1H-pyrazolo[4,3-c]pyridin-3-yl]-benzonitrile], 64 nM; as for `N#Cc1cccc(-c2nn(Cc3ccc(F)cc3F)c3c2CN(C(=O)C2CCCC2)CC3)c1` [Example 8j, 3-[5-Cyclopentane-carbonyl-1-(2,4-difluoro-benzyl)-4,5,6,7-tetrahydro-1H-pyrazolo[4,3-c]pyridin-3-yl]-benzonitrile], 722 nM. As for `CS(=O)(=O)c1ccc(C(=O)N2CCc3c(c(-c4cccc(C#N)c4)nn3Cc3ccc(F)cc3F)C2)cc1` [Example 8k, 3-[1-(2,4-Difluoro-benzyl)-5-(4-methanesulfonyl-benzoyl)-4,5,6,7-tetrahydro-1H-pyrazolo[4,3-c]pyridin-3-yl]-benzonitrile], the concentration for half-maximal inhibition (IC50) was 906 nM. `N#Cc1cccc(-c2nn(Cc3ccc(F)cc3F)c3c2CN(C(=O)C2CCOCC2)CC3)c1` [Example 8l, 3-[1-(2,4-Difluoro-benzyl)-5-(tetra-hydro-pyran-4-carbonyl)-4,5,6,7-tetrahydro-1H-pyrazolo[4,3-c]pyridin-3-yl]-benzonitrile] gave a half-inhibitory concentration (IC50) of 585 nM. As for `N#Cc1cccc(-c2nn(Cc3ccc(F)cc3F)c3c2CN(C(=O)C2CCOC2)CC3)c1` (stereo not drawn) [Example 8m, 3-[1-(2,4-Difluoro-benzyl)-5-(tetrahydro-furan-3-carbonyl)-4,5,6,7-tetrahydro-1H-pyrazolo[4,3-c]pyridin-3-yl]-benzonitrile], inhibition was half-maximal at 890 nM (IC50). Consider `COCC(=O)N1CCc2c(c(-c3cccc(C#N)c3)nn2Cc2ccc(F)cc2F)C1` [Example 8n, 3-[1-(2,4-Difluoro-benzyl)-5-(2-methoxy-acetyl)-4,5,6,7-tetrahydro-1H-pyrazolo[4,3-c]pyridin-3-yl]-benzonitrile], for which 5 µM produced 80% inhibition. Compound `CC(C)(C)C(=O)N1CCc2c(c(-c3cccc(C#N)c3)nn2Cc2ccc(F)cc2F)C1` [Example 8o, 3-[1-(2,4-Difluoro-benzyl)-5-(2,2-dimethyl-propionyl)-4,5,6,7-tetrahydro-1H-pyrazolo[4,3-c]pyridin-3-yl]-benzonitrile] had a half-maximal inhibitory concentration (IC50) of 131 nM. This counts as sub-micromolar. As to `CCC(=O)N1CCc2c(c(-c3cccc(C#N)c3)nn2Cc2ccc(F)cc2F)C1` [Example 8p, 3-[1-(2,4-Difluoro-benzyl)-5-propionyl-4,5,6,7-tetrahydro-1H-pyrazolo[4,3-c]pyridin-3-yl]-benzonitrile], the IC50 was 530 nM. With `C[C@H](O)C(=O)N1CCc2c(c(-c3cccc(C#N)c3)nn2Cc2ccc(F)cc2F)C1` [Example 8q, 3-[1-(2,4-Difluoro-benzyl)-5-((S)-2-hydroxy-propionyl)-4,5,6,7-tetrahydro-1H-pyrazolo[4,3-c]pyridin-3-yl]-benzonitrile], the concentration for half-maximal inhibition (IC50) was 756 nM. On the same count and under the same terms, as for `O=C(Cc1ccccc1)N1CCc2c(c(-c3ccc(F)cc3)nn2Cc2ccccc2)C1` [Example 8r, 1-[1-Benzyl-3-(4-fluoro-phenyl)-1,4,6,7-tetrahydro-pyrazolo[4,3-c]pyridin-5-yl]-2-phenyl-ethanone], the figure is 1140 nM; as for `CCCC(=O)N1CCc2c(c(-c3cccc(C#N)c3)nn2Cc2ccc(F)cc2F)C1` [Example 8s, 3-[5-Butyryl-1-(2,4-difluoro-benzyl)-4,5,6,7-tetrahydro-1H-pyrazolo[4,3-c]pyridin-3-yl]-benzonitrile], < 10000 nM; as for `N#Cc1cccc(-c2nn(Cc3ccc(F)cc3F)c3c2CN(C(=O)c2ccccn2)CC3)c1` [Example 8t, 3-[1-(2,4-Difluoro-benzyl)-5-(pyridine-2-carbonyl)-4,5,6,7-tetrahydro-1H-pyrazolo[4,3-c]pyridin-3-yl]-benzonitrile], 246 nM.

The compound `N#Cc1cccc(-c2nn(Cc3ccc(F)cc3F)c3c2CN(C(=O)c2ccncc2F)CC3)c1` [Example 8u, 3-[1-(2,4-Difluoro-benzyl)-5-(3-fluoro-pyridine-4-carbonyl)-4,5,6,7-tetrahydro-1H-pyrazolo[4,3-c]pyridin-3-yl]-benzonitrile] displayed an IC50 of 416 nM. `N#Cc1cccc(-c2nn(Cc3ccc(F)cc3F)c3c2CN(C(=O)c2ccncn2)CC3)c1` [Example 8v, 3-[1-(2,4-Difluoro-benzyl)-5-(pyrimidine-4-carbonyl)-4,5,6,7-tetrahydro-1H-pyrazolo[4,3-c]pyridin-3-yl]-benzonitrile]: half-maximal inhibition (IC50) was put at 864 nM.
